Assay: Decrease in BHT content on a stent due to each manufacturing step (FIG. 1)
Format: physicochemical
Conditions: for reduction of the amount of BHT present in the drug reservoir layer: everolimus/BHT Xience V stent
Text: FIG. 1 is a graph showing the decrease in BHT content on a stent due to each step in the manufacturing process in which a macrocyclic triene lactone and BHT are present.
For example, with regard to the above-mentioned Xience V stent, the process steps for coating the stent include spray coating a drug reservoir layer solution comprising everolimus and BHT onto a stent, which includes a primer layer, then drying the coated stent at an elevated temperature, mounting the stent on a delivery catheter and, finally, sterilizing the mounted stent/catheter. […] FIG. 1 relates to a stent comprising everolimus as the macrocyclic triene lactone and BHT as the antioxidant stabilizer but it is understood that similar if not identical results would be observed if a different macrocyclic triene lactone were used with BHT. Likewise it is expected that similar results would be obtained in terms of the magnitude of the effect at each step of a different antioxidant stabilizer were used.
Calculation of the proper amount of BHT to include with everolimus on a stent to arrive at a finished catheter/stent product that has the desired amount of residual BHT, i.e., about 0.001% to about 0.01% w/w based on the weight of everolimus on the stent, can be accomplished in two ways. At one extreme is stoichiometric reduction in the amount of BHT on the stent as the fabrication steps progress. In this approach, the amount of BHT drops by a constant amount at each fabrication step independent of the starting amount of BHT present. At the other extreme is a percentage drop where amount of the BHT decreases by the same percentage in each fabrication step, likewise independent of starting amount of BHT. Table 1 exemplifies these extremes compared to the known loss of BHT using the current […] stent and everolimus, which contains 0.20% (w/w) of BHT based on the weight of everolimus.
Thus, the fabrication process shown in FIG. 1 affords a drop in the amount of BHT from 0.2% in the starting material down to approximately 0.044% in the finished product. To achieve a final amount of BHT that is between the presently preferred […] and 0.01%, assuming the same proportional decrease in the amount of BHT, a starting amount in the coating solvent would be about 0.0455% (w/w) or less. On the other hand, assuming the same absolute decrease in the amount of BHT present in the finished product (stoichiometric loss), would require something less than about 0.166% (w/w) BHT in the coating solvent. Of course, a BHT reduction process that is neither stoichiometric nor proportional is possible, in which case the starting amount of BHT on the stent would be between the two extremes. It is clear, however, that beginning with about 0.0166% (w/w) BHT based on everolimus would in all instances result in a finished product have less that 0.01% (w/w) of BHT, an amount that would for all intents and purposes result in an insignificant exposure of a patient to the antioxidant.

In the case of `Cc1cc(C(C)(C)C)c(O)c(C(C)(C)C)c1` [BHT, butylated hydroxytoluene], the “reduction of the amount of BHT present in the drug reservoir layer” value (shortened to “reduction of the amount of BHT present”) (catheter mounting step) is reported as “about 1%”, the “% Antioxidant (w/w, based on everolimus) in finished product” value (current XV process, 0.20% BHT initially provided in everolimus) is reported as “approximately 0.044 % (w/w, based on everolimus)” and the “reduction of the amount of BHT present” value (drying step at elevated temperature) is reported as “about 9%”. The “reduction of the amount of BHT present” value (ethylene oxide sterilization step) was “about 64%”, the “additional reduction of BHT” value (follow-up ethylene oxide sterilization on the already sterilized catheter/stent) was 30% and the “reduction of the amount of BHT present” value (spray coating step) was “about 61%”.
